PMC3441713, “Citrullination of Histone H3 Interferes with HP1-Mediated Transcriptional Repression” (PLoS Genetics, 2012)
“Also recorded” adds a separate entry of the source.

Columns and labels:
MCF7 cells [1] = assay: ChIP on HERV LTRs and gene promoters in MCF7 cells; format: cell-based, human
Procedure: Values are averaged from 3 independent experiments.
Ionophores were used at 1 µM.

Jurkat T cells [2] = assay: PADI4 production in Jurkat T cells after estrogen/ionophore treatment (data not shown); format: cell-based
MCF7 cells [3] = assay: Immunoblot of PADI4 and H3cit8K9me3 in MCF7 cells; format: cell-based, human
Description: Anti-H3cit8K9me3 antibody was produced in rabbits using a peptide coupled to KLH with the following sequence: ARTKQTA (cit)(Kme3)[…]. Anti-PADI4 (ChIP: P4749; immunoblots: ab50332), anti-H3cit(2,8,17) (ab5103), anti-H3(ab1791), and anti-H3K9me3 (ab8898) antibodies were purchased from Abcam. Anti-HP1α (ChIP: 1H5; immunoblots: 2G9) and anti-Brg1 (2E12) were from Euromedex. Calcium ionophore A23187 (used on HEK293 and MCF7 cells) and ionomycin (only ionophore tolerated by Jurkat cells), and 17-ß-estradiol (E2758) were purchased from Sigma. DNA was labeled with 4′,6-diamidino-2-phenylindole (DAPI; Invitrogen) at a concentration of 150 ng.ml^−1. […] Peptides were carefully quantified by amino acid analysis, and the presence of the modifications was confirmed by mass spectrometry. […]
(§1) HP1 small interfering RNAs (siRNAs) were described previously. PADI4 (J-012471-05) and Glyceraldehyde-3-phosphate dehydrogenase control siRNAs were purchased from Dharmacon. Cells were harvested 72 h after transfection with DharmaFECT 1 (T 2001-03). Total RNA from PBMCs and MCF7 cells was extracted with RNeasy (Qiagen) and quantified with an ND-1000 (Nanodrop). After DNase treatment (Roche), reverse transcription was performed using SuperScript III (Invitrogen) and random hexanucleotides according to the manufacturer's instructions. Complementary DNA was quantified by RT-qPCR as previously described. Proteins were extracted as described previously and detected by Western blotting. Acid extraction of histones was conducted as described by Shechter, et al., [78].

MCF7 cells [4] = assay: RT-qPCR of HERV, repeat and immune gene mRNA in MCF7 cells; format: cell-based, human
Procedure: as §1

Jurkat T cells [5] = assay: RT-qPCR of TNFα, IL8 and PADI4 mRNA in Jurkat T cells; format: cell-based; details: 200 µM Cl-amidine, 72 h; cells stimulated by ionomycin and PMA; duplicate
Procedure: (B) Total RNA was isolated from Jurkat cells either un-stimulated or treated with ionomycin and PMA for 2 hour. Changes in mRNA levels for the indicated genes were quantified by RT-qPCR. The data are presented as the means ± SEM of triplicate experiments. […] (D) Total RNA was isolated from Jurkat cells treated as in B minus or plus PADI-inhibitor cl-amidine as indicated. Changes in mRNA levels for the indicated genes were quantified by RT-qPCR. The data are presented as the means ± SEM of duplicate experiments.
Jurkat cells were treated with phorbol myristate acetate (PMA) at 40 nM. Ionophores were used at 1 µM. PADI4 inhibitor, Cl-amidine (from Bertin Pharma) was dissolved in 1× PBS as a 50 mM stock solution. MCF7 and Jurkat cells were treated with 200 µM Cl-amidine in complete cell culture medium for exactly 72 h.

[6] = E2 (200 nM, 24 h) + A23187 (5 µM, 30 min), minus or plus 200 µM Cl-amidine, relative to un-induced

| Molecule | levels of citrullinated histone H3 at HERV-H, HERV-W/LTR and TNFα promoter (MCF7 cells [1]; E2+A23187, anti-H3cit (2, 8, 17) or anti-H3cit8K9me3) | levels of HP1α recruitment at HERV-H, HERV-W/LTR and TNFα promoter (MCF7 cells [1]; E2+A23187, anti-HP1α) | production of PADI4 (Jurkat T cells [2]) | total levels of H3cit8K9me3 modification (MCF7 cells [3]; 200 nM E2 24 h, then 5 µM A23187 30 min) | total levels of PADI4 (MCF7 cells [3]; 200 nM E2 24 h, then 5 µM A23187 30 min in Locke's solution) | expression of HERV-H/env62, ERVWE1 and the selected cytokine genes (MCF7 cells [4]; [6]) | expression of HERV-H/env62 (MCF7 cells [4]; E2 and A23187, 24 h, normalized to RPLP0, three replicates) | levels of HP1α occupancy at HERV-H, HERV-W/LTR and TNFα promoter (MCF7 cells [1]; E2+A23187 plus 200 µM Cl-amidine, anti-HP1α) | levels of H3Cit8K9me3 (MCF7 cells [3]; 200 µM Cl-amidine, 72 h) | expression of HERV-H/env62, ERVWE1 and the selected cytokine genes (MCF7 cells [4]; 200 µM Cl-amidine, 72 h, no E2/A23187, four replicates) | TNFα and IL8 mRNA accumulation (Jurkat T cells [5]) |
| --- | --- | --- | --- | --- | --- | --- | --- | --- | --- | --- | --- |
| 17-ß-estradiol [E2/A23187] | locally increases levels of citrullinated histone H3 | markedly decreased | stimulated production | increases total levels | increases total levels; also recorded: induced | Cl-amidine-sensitive increase in expression | increases the expression | – | – | – | – |
| NC(=O)[C@H](CCCN=C(N)CCl)NC(=O)c1ccccc1 [Cl-amidine] | – | – | – | – | – | Cl-amidine-sensitive increase in expression | – | partially restored | decreased levels of H3Cit8K9me3 | reduced expression | reduced the kinetic and the abundance |
